Source: patent publication US8828976B2, “Identification and use of compounds that affect the fidelity of eukaryotic translation initiation codon selection” (priority 2010, dated 2014)
Where a name gives a salt, the structure may show the parent alone. Read-outs that look alike come from different tables or passages of the source.

Columns and labels:
[1] = test system: UUG start codon of Fluc mRNA (fidelity of start codon selection); experiment: Dual luciferase assay, primary screen (FlucUUG/RlucAUG), BY4741 with pFuugRaug; assay type: cell-based, Saccharomyces cerevisiae; details: for raw FlucUUG value: at concentrations that decrease the other luciferase values
Source text: In the assay, Renilla luciferase (Rluc) and firefly luciferase (Fluc) genes are expressed from a single plasmid, each under the control of a separate constitutive promoter and terminator, allowing transcription of the two genes as separate mRNAs. The Fluc mRNA has a non-AUG start codon (FIG. 2A). […] UUG was chosen as the near cognate start site in the screen, allowing easy identification of compounds that either increase expression (chemically reproducing a Sui^− phenotype, decreasing fidelity) or decrease expression (enhancing fidelity) of UUG relative to AUG in the dual luciferase assay.
BY4741 expressing the RaugFaug plasmid was included in the 1st and last column as an additional control. Compounds to be tested were supplied from the NCI DTP library in 96 well format at 1 mM in DMSO. DMSO was included in all control wells. 1.5 μL of compound (or DMSO) was added to each well of the yeast plate, followed by incubation at 30° C. for 4 hours while shaking. […] The same protocol was used when testing the other libraries, with the appropriate solvent controls. The Fuug/Raug ratio of each sample with drug was compared to the average Fuug/Raug ratio of the solvent only controls on the same plate.
Every row contains DMSO-only controls for each strain. For each compound-treated sample, the ratio of [Fluc(UUG)/Rluc(AUG)]/[Fluc(AUG)/Rluc(AUG)] is calculated using the DMSO-only Fluc(AUG)/Rluc(AUG) control from that row (there is one for each row in a plate). This ratio is the Fluc(UUG)/Fluc(AUG) ratio normalized to Rluc(AUG) activity in each sample. […] Potential changes include pipetting inaccuracies, differences in lysis efficiencies or global effects on gene expression due to differences in cell densities during growth. The internal Rluc control also helps screen out compounds that affect gene expression or cell growth globally rather than having specific effects on translation from non-AUG codons.
When a hit was identified, rescreening and counter screening assays were done using 300 μM to 10 nM of the compound, i.e., the identified “hit,” to measure concentration dependence.

[2] = test system: AUG start codon of Fluc mRNA; experiment: Dual luciferase counter-screen (FlucAUG/RlucAUG), BY4741 with pFaugRaug; assay type: cell-based, Saccharomyces cerevisiae; details: for FlucAUG/RlucAUG ratio in the presence of compound: BY4741, screening conditions
Method: The compounds were then tested in secondary assays.
The dual luciferase assay was carried out as in Kolitz et al. (RNA, vol. 15, no. 1, pp. 138-152, 2009), with the following modifications to screening conditions: An over-night culture of wild type yeast (BY4741 transformed with pFuugRaug) were diluted to an OD600 of approximately 0.2 in SC-Ura, and 50 μL were aliquoted to each well of a 96 well plate. BY4741 expressing the RaugFaug plasmid was included in the 1st and last column as an additional control. Compounds to be tested were supplied from the NCI DTP library in 96 well format at 1 mM in DMSO. DMSO was included in all control wells. 1.5 μL of compound (or DMSO) was added to each well of the yeast plate, followed by incubation at 30° C. for 4 hours while shaking. To measure luciferase activity, 1 μL of culture was added directly to 50 μL of 1× Passive Lysis Buffer (Promega), incubated 40-60 minutes at room temperature, then luciferase activity measured using a Turner Modulus Microplate Reader (Kolitz et al., RNA, vol. 15, no. 1, pp. 138-152, 2009). The same protocol was used when testing the other libraries, with the appropriate solvent controls. The Fuug/Raug ratio of each sample with drug was compared to the average Fuug/Raug ratio of the solvent only controls on the same plate.
Changes in the Fluc(UUG)/Rluc(AUG) ratio could be caused by a compound altering the use of UUG as a start codon (the desired target) or a variety of other effects such as changes in transcription of one gene, changes in mRNA or protein half-life, or inhibition or activation of one of the luciferase enzymes. […] Compounds that specifically increase use of near-cognate codons as start sites will not produce an effect in this Fluc(AUG)/Rluc(AUG) assay, whereas compounds that alter other process will not be specific for the Fluc(UUG)/Rluc(AUG) system and will still produce effects with the Fluc(AUG)/Rluc(AUG) reporter. Compounds that are not specific for effects on Fluc(UUG) expression will not be pursued further.

[3] = test system: Sui- strain sui1-1 (eIF1 D83G); experiment: Growth assay of Sui- strain sui1-1 (his4-303) on SC-His / SC plates with compound-soaked paper strips; details: for growth of sui1-1 close to the compound source: paper strip with 10 mM NSC92218 or 50 mM NSC218351, FIG. 18 column 1 and 5
Source text: Compound or solvent soaked paper strips were placed on agar plates. Yeast were spotted onto the plate as 4 rows increasingly distant from the paper strip and grown for 4 days on SC-His and 2 days on SC.
An additional reporter assay utilizes a yeast strain in which the AUG start codon of the HIS4 gene has been changed to AUU (his4-303) (Huang et al., Genes Dev., vol. 11, pp. 2396-2413, 1997). This strain is a histidine auxotroph and cannot grow on medium lacking histidine. However, Sui^− mutations allow initiation from the AUU start site or, more commonly, a UUG three codons downstream from it, restoring expression of His4p and thus growth on His^− medium (Castilho-Valavicius et al., Genetics, vol. 124, pp. 483-495, 1990; Huang et al., Genes Dev., vol. 11, pp. 2396-2413, 1997; Yoon et al., Mol. Cell. Biol., vol. 12, pp. 248-260, 1992). Observing an alteration of the Sui^− phenotype is a more sensitive assay than rescuing growth of a wild type strain. […] Likewise, if the compound increases the fidelity of initiation, then growth should be compromised.
Yeast with the his4-303 allele from an over-night culture were washed with water and diluted to an OD600 between 0.1-1. Strips of sterile Whatman paper were soaked with compound or solvent and placed on an agar plate of the appropriate media. The yeast culture was spotted onto the plate at various distances from the paper strips. The plates were incubated at 30° C. Diffusion creates a gradient of compound, which tends to enhance growth only in a certain range because of off-setting toxicity at high concentrations.
Chemically increasing use of near-cognate codons as start codons mimics the Sui^− phenotype. Sui^− mutations were originally identified in a screen that requires translation initiation at a non-AUG start codon in a mutant of the HIS4 gene (his4-303 allele) for growth on SC-His media (Donahue et al., Mol. Cell. Biol., vol. 8, no. 7, pp. 2955-2963, 1988). Compounds that increase the use of non-AUG start codons to a small degree should further increase growth of Sui^− strains with the his4-303 allele on SC-His media, chemically enhancing the Sui^− phenotype. To test this, a paper strip saturated with compound was placed onto a plate of media (SC or SC-His). Yeast with the his4-303 allele was spotted on the plate at various distances from the compound- or solvent-containing strips.

yeast cells = experiment: Growth / toxicity to wild type yeast
[4] = test system: FlucUUG/RlucAUG ratio in hc eIF1 strain; experiment: Dual luciferase assay in strain over-expressing eIF1 (H3984, hc eIF1); assay type: cell-based, Saccharomyces cerevisiae; details: hc eIF1 vs BY4741; for suppression of the compound's effect on UUG initiation by over-expression of eIF1: 60 μM NSC218351, 3.8 μM NSC92218
Method: H3984 data are an average of 2 independent experiments. Error bars represent average deviation. The concentration of NSC218351 was 60 μM, and NSC92218 was 3.8 μM. Haplo-insufficiency results are averages of data from 2 separate transformants. The concentration of NSC218351 was 33 μM, and NSC92218 was 7 μM. FlucAUG/RlucAUG expression ratio with DMSO alone was used to normalize the Fluc/Rluc ratio for both FlucAUG and FlucUUG for each strain (normalized FlucAUG/RlucAUG with DMSO alone is 1 for each strain).
Data, from 2 independent experiments, were analyzed.

[5] = test system: UUG start codon of PRE2 uORF; experiment: uORF luciferase assay (PRE2 uORF with UUG start codon fused to firefly luciferase); assay type: cell-based, Saccharomyces cerevisiae; details: wild type yeast, normalized to DMSO alone
Method: BY4741 was transformed with pNTI33 or pNTI32. Transformants were incubated with compound and luciferase activity measured as described for the dual luciferase assay. The solvent-only firefly luciferase activity was used for normalization.
To further validate the effects of compounds that pass the primary and counterscreens, an additional reporter assay was performed. The assay uses a 5′-upstream open reading frame (uORF) that begins with a UUG codon and was shown in yeast to be translated, especially under amino acid starvation conditions (Castilho-Valavicius et al., Genetics, vol. 124, pp. 483-495, 1990). This uORF was fused both in-frame and out-of-frame to the firefly luciferase gene and the effect of the compounds on initiation on this physiologically relevant near-cognate start codon assessed.
This construct was used to assess the effect of the compounds on translation mediated by the non-AUG start codon of the uORFs. The PRE2 uORF has an UUG start codon, with the consensus sequence (−3)AAA(−1) directly upstream of UUG (FIG. 15). In the control reporter, the luciferase coding region is out-of-frame from the start codon of the uORF.

[6] = test system: near-cognate start codons; experiment: Dual luciferase assay with Fluc reporters with different near-cognate start codons; assay type: cell-based, Saccharomyces cerevisiae; details: Fluc reporter with AUU start codon
Method: AAG and AGG are not used detectably as Fluc initiation codons in yeast (Kolitz et al., RNA, vol. 15, no. 1, pp. 138-152, 2009) and were thus not tested. […] Efficiency of use of near cognate codons as initiation sites was measured with the dual luciferase assay in several Sui^− mutant strains. Translation from each alternative start codon in the Sui^− strain was normalized to translation from that codon in a wild type strain. Sui^− mutations increase the use of near cognates up to 18-fold (GUG in eIF1 D83G strain). However, in each mutant strain, translation from AUU is increased the least. Although it is not understood why AUU behaves anomalously, it is interesting that NSC218351 mimics this aspect of the behavior of the Sui^− mutations in initiation factors.

Sui- mutant eIF1 D83G = experiment: Growth of Sui- mutant eIF1 D83G in His- culture (doubling time); assay type: cell-based, Saccharomyces cerevisiae; details: His- culture with compound; decreased from 8 hrs
Source text: Doubling times were quantified for two experiments by plotting Log2(OD600) vs. time. The slope of the line between −2.5<Log2(OD600)<2 equals 1/doubling time.
(§1) While small, the effects are reproducible. No effects on growth of Sui^− strains with mutations in other initiation factors (eIF1A, eIF2, and eIF5) have been detected.

[7] = test system: Sui- strains with mutations in eIF1A, eIF2, and eIF5; experiment: Growth of Sui- strains with mutations in other initiation factors; assay type: cell-based, Saccharomyces cerevisiae
Source text: as §1

[8] = analogs of NSC92218, 8 μM, ratio normalized to DMSO control
[9] = 50 mM on the paper strip, SC-His

## COc1cc(N)c2ncccc2c1Cl [Cpd 19, 5-chloro-6-methoxyquinolin-8-amine]
[1]; [8]
  UUG/AUG (primary screen effect): 0.94
[2]; [8]
  AUG/AUG (counter screen effect): 0.99

## Nc1cc(I)c2cccnc2c1O [NSC92218, 7-amino-5-iodo-8-quinolinol hydrochloride]
[3]; 2.5 mM on the paper strip
  growth of sui1-1 in column 1 on SC-His relative to the inhibitory effect on SC: growth enhancement occurred
[3]; 10 mM on the paper strip
  growth of sui1-1 on SC-His in columns 2 and 3: enhanced growth
[3]
  growth of sui1-1 close to the compound source: prevented growth
Yeast cells
  concentration that does not affect growth of wild type yeast while the FlucUUG/RlucAUG ratio increases: 2 µM
[1]
  increase of the FlucUUG/RlucAUG ratio: 1.8 fold
  minimal concentration required to achieve the 1.8-fold increase of the UUG/AUG ratio: 15 µM
  raw FlucUUG value: did not change, or increases slightly
[2]
  FlucAUG/RlucAUG ratio in the presence of compound: did not change
[4]; 3.8 μM
  reduction of the compound's effect in the eIF1 over-expressing strain relative to wild type cells: ~50%
[4]
  suppression of the compound's effect on UUG initiation by over-expression of eIF1: partially
[5]
  increase of expression of the in-frame PRE2 uORF-Fluc reporter: ~2 fold

## O=C(O)c1nccc2ccccc12 [NSC218351, isoquinoline-1-carboxylic acid]
[3]; 12.5 mM on the paper strip, column 1
  growth of sui1-1 on SC-His in the column closest to the compound source: enhanced
[3]; [9]
  growth of sui1-1 on selective media close to the drug source: inhibited
  growth of sui1-1 on selective media farther from the source relative to DMSO: enhanced
[3]; His- plates
  growth of the eIF1 Sui- strains on His- plates: enhances the growth
[3]
  growth of sui1-1 close to the compound source: slowed growth
Yeast cells
  toxicity to yeast cells: not toxic
  concentration that does not affect growth of wild type yeast while the FlucUUG/RlucAUG ratio increases: 50 µM
Yeast cells; yeast
  concentration at which growth was reduced: 300 µM
  working concentrations at which toxicity is not a concern: 10 to 100 µM
[1]; 60 μM vs 15 μM, higher for NSC218351
  minimal concentration for the effect, NSC218351 relative to NSC92218: 4 fold
[1]; BY4741
  minimal concentration required to achieve the 1.8-fold increase of the UUG/AUG ratio: 60 µM
[1]; BY4741, 4 hours with compound, reached at 60 μM NSC218351 / 15 μM NSC92218
  increase of the FlucUUG/RlucAUG ratio: 1.8 fold
[1]
  raw FlucUUG value: increased slightly
[1]; pFuugRaug plasmid, increasing concentration
  raw RlucAUG value: decreased
[6]
  initiation at AUU codons: did not increase
[2]
  FlucAUG/RlucAUG ratio in the presence of compound: does not change
Sui- mutant eIF1 D83G
  doubling time of eIF1 D83G: 7.35 h
[4]
  suppression of the compound's effect on UUG initiation by over-expression of eIF1: completely suppressed
[5]
  increase of expression of the in-frame PRE2 uORF-Fluc reporter: approximately 1.5 fold
[7]
  growth of Sui- strains with mutations in other initiation factors (eIF1A, eIF2, and eIF5): No effects

## C[C@@H]1C[C@@H]([C@H](O)CC2CC(=O)NC(=O)C2)C(=O)[C@@H](C)C1 [cycloheximide, reference compound]
[1]; BY4741 grown under screening conditions
  effect on FlucUUG/RlucAUG ratio: altered
[1]; cells grown under screening conditions, four hours
  raw luciferase values relative to control values: ~25%
[2]
  FlucAUG/RlucAUG ratio in the presence of compound: also altered
